Assays:
ChoK [1] = assay: ChoK activity by 14C-labeled choline uptake, TLC/autoradiography, in MDA-MB-231 cells; format: cell-based, human; conditions: for ChoK inhibition (PC production as % control): MDA-MB-231 cells, increasing concentrations, 14 h following 14C-choline addition; for IC50 of ChoK inhibition: relative to positive control MN58b
Experimental: ChoK activity was assessed in triple-negative MDA-MB-231 breast cancer cells and in non-transformed MCF10a breast epithelial cells using ^14C-labeled choline uptake.
MDA-MB-231 cells and non-malignant MCF-10a cells were incubated for 14 hr with JAS239 and analyzed by TLC/autoradiography after ^14C-choline labeling.
MDA-MB-231 cells were incubated with increasing concentrations of JAS239 or JAS240. 14 h following ^14C-choline addition, cells were extracted for TLC/autoradiography analysis. […] MN58b was used as positive control.

MDA-MB-231 cells [2] = assay: Fluorescent confocal microscopy, subcellular localization; format: cell-based, human; conditions: 2 μM
Experimental: (§1) Immunofluorescence studies confirmed the specificity of ChoKα binding (FIG. 7). […] Cells were treated with a Rabbit polyclonal antibody to human ChoKα followed by a Texas Red Goat Anti-Rabbit IgG secondary antibody. Confocal images were taken using a Leica DMI6000 B microscope with channels for Texas Red (Ex: 594 nm, Em: 600-630 nm), and JAS239 (Ex: 633 nm, Em: 728-800 nm).

MDA-MB-231 cells [3] = assay: Fluorimetry of probe uptake in MDA-MB-231 cells; format: cell-based, human
Experimental: MDA-MB-231 cells were incubated with JAS239 and the fluorescence measured (Excitation 640 nm, Emission 770 nm).
(§2) MDA-MB-231 cells were treated for 2 hr with or without 10 μM JAS239 in the presence of varying concentrations of choline. Autoradiography was used to estimate phosphorylation of ^14C-labeled choline. Fluorimetry was performed under the same cellular conditions for estimation of probe uptake (Excitation 640 nm, Emission 770 nm). These values represent a ratio of JAS239 treated vs. untreated cells, and are reported relative to control.

ChoK [4] = molecular target: T1, ChoK (Homo sapiens, UniProt P35790); assay: Choline competition: phosphorylation of 14C-labeled choline with varying choline concentrations; format: cell-based; conditions: MDA-MB-231 cells, 2 hr, 10 μM
T1 construct: endogenous in cells; host or cells: MDA-MB-231 (and MCF10a) cells
Experimental: as §2

human ChoKα = molecular target: T2, human ChoKα (Homo sapiens, UniProt P35790); assay: Immunofluorescence study of ChoKα binding specificity; format: cell-based; conditions: fixed permeabilized MDA-MB-231 cells, 2 μM, added before or after ChoKα antibody
T2 construct: endogenous in cells; host or cells: MDA-MB-231 cells (fixed, permeabilized)
Experimental: as §1

MDA-MB-231 tumors = assay: In vivo fluorescence distribution in mice bearing MDA-MB-231 tumors; set-up: species or system athymic nude mice

T1 sequence (P35790 whole entry): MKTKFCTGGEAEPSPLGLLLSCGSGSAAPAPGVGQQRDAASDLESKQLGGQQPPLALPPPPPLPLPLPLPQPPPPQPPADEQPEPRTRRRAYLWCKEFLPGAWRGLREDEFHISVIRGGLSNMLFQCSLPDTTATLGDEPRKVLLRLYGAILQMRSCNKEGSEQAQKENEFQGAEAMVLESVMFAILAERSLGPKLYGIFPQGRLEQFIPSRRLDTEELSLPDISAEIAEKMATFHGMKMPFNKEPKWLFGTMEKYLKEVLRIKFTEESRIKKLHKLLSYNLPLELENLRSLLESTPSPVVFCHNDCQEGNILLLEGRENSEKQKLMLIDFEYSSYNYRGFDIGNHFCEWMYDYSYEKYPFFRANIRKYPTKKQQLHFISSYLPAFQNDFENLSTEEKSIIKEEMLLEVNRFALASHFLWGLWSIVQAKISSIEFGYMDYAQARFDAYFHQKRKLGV
T2 sequence (P35790 whole entry): as above

Structure (SMILES)	ChoK inhibition (PC production as % control) (ChoK [1])	IC50 of ChoK inhibition (ChoK [1])	Subcellular localization (MDA-MB-231 cells [2])	Time by which cell uptake is detectable (MDA-MB-231 cells [3]) [min]	Cell uptake versus exogenous choline concentration (MDA-MB-231 cells [3]; MDA-MB-231 cells, 10 μM, 2 hr)	Cell uptake versus probe concentration (MDA-MB-231 cells [3]; MDA-MB-231 cells, Excitation 640 nm, Emission 770 nm)	Time by which ChoK inhibition is present (ChoK [1]) [min]	Sensitivity of MDA-MB-231 cells versus non-transformed MCF10a cells (ChoK [1]; 14 hr incubation, 14C-choline labeling)	Mode of ChoK inhibition (ChoK [4])	Specificity of binding to ChoKα (human ChoKα)	Tissue accumulation of probe fluorescence (MDA-MB-231 tumors; 20 nmol i.v., 15 min post-injection, Ex. 745 nm, Em 800 nm)	Fluorescence in background muscle tissue (MDA-MB-231 tumors; excised tissue, dual CCD fluorescence camera)
CN1\C(=C/C=C/C=C/C=C/C2=[N+](C)c3ccccc3C2(C)C)C(C)(C)c2ccccc21.[I-] [JAS240, 1,3,3-trimethyl-2-((1E,3E,5E)-7-((Z/E)-1,3,3-trimethylindolin-2-ylidene)hepta-1,3,5-trien-1-yl)-3H-indol-1-ium iodide]	ChoK inhibition at physiologically-relevant concentrations	comparable to MN58b	localized to the cytoplasm	–	–	–	–	–	–	–	–	–
CC1(C)C(/C=C/C=C/C=C/C=C2\N(CCO)c3ccccc3C2(C)C)=[N+](CCO)c2ccccc21 [JAS239, 1-(2-hydroxyethyl)-2-((1E,3E,5E)-7-((Z/E)-1-(2-hydroxyethyl)-3,3-dimethylindolin-2-ylidene)hepta-1,3,5-trien-1-yl)-3,3-dimethyl-3H-indol-1-ium chloride]	ChoK inhibition at physiologically-relevant concentrations	comparable to MN58b	co-localizes with the cytosolic expression of ChoK	≤ 15	independent of exogenous choline concentration	linearly proportional to concentration	≤ 60	greater sensitivity	competitive inhibitor of ChoK	specific to ChoKα	accumulate in the kidneys and tumor	no fluorescence detectable

Source: patent US11813338B2, “Diagnosing and treating cancer” (The Trustees of the University of Pennsylvania, priority 2013, dated 2023)
